The values that follow are results of earlier work, collected in patent US6979677B1, “Inhibition of vascular smooth muscle cell proliferation” (priority 1994, dated 2005).

Series [1] relates to cerebral glioma. The following applies: rats with HSV-tk-expressing murine fibroblasts, given GCV.
The subject of series [2] is transplantable murine adenocarcinoma. The following applies: HSV-tk transfected adenocarcinoma treated with GCV.
Series [3] relates to lymphomas. The following applies: of 12 mice treated with GCV.
Series [4] concerns nondividing rabbit arterial cells.

With `Nc1nc(O)c2ncn(COC(CO)CO)c2n1` [GCV, ganciclovir], the “glioma regression, microscopically and macroscopically” value in series [1] is on record as “regressed completely”. Also, the “tumor response in vivo” value in series [2] was “regression”. The “number of mice with complete tumor regression” value in series [3] is on record as 11. For the same compound, the “expression of HSV-tk-β-galactosidase construct under GCV treatment” value in series [4] is “unaffected”.
